According to patent US20240158348A1, “HERBICIDAL CYCLIC AMIDES N-SUBSTITUTED WITH A HALOALKYLSULFONYLANILIDE GROUP” (FMC Corporation, priority 2021, published 2024):

Key:
Assay type in all cases: in vivo
[1] = test system: rice (Oryza sativa); assay: Test D flooded paddy test, rice; design: key: 0 = no effect, 100 = complete control; settings: 250 g ai/ha, Flood; applied to paddy water at 2-leaf stage; visual rating after 13 days; scale 0 (no effect) to 100 (complete control)
Outline: (§1)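 Under 3 cm of standing water, kept constant after treatment, 2-leaf plants received compound via the paddy water. Ratings on a 0–100 control scale were assigned visually after 13 greenhouse days; a dash denotes no test result.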

[2] = test system: blackgrass (Alopecurus myosuroides); assay: Test C postemergence, blackgrass; settings: visual injury, 0 to 100 scale (0 no effect, 100 complete control)
Outline: (§2)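 Greenhouse pot test. Compounds in a non-phytotoxic solvent with surfactant were applied to a loam–sand soil mix either preemergence as a directed spray or postemergence to plants at the one- to two-leaf stage; 0–100 visual ratings followed after 10 or 12 days.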

[3] = test system: oat, wild (wild oat, Avena fatua); assay: Test C postemergence, wild oat; settings: for Oat, Wild plant response rating: visual injury, 0 to 100 scale (0 no effect, 100 complete control)
[4] = test system: ducksalad (Heteranthera limosa); assay: Test D flooded paddy test, ducksalad; design: key: 0 = no effect, 100 = complete control; settings: 250 g ai/ha, Flood; applied to paddy water at 2-leaf stage; visual rating after 13 days; scale 0 (no effect) to 100 (complete control)
Outline: as §1

[5] = test system: pigweed, palmer (palmer amaranth, Amaranthus palmeri); assay: Test C preemergence, palmer amaranth; settings: 0 is no effect, 100 is complete control
Outline: as §2

[6] = test system: wheat (Triticum aestivum); assay: Test C postemergence, wheat; settings: visual injury, 0 to 100 scale (0 no effect, 100 complete control)
Outline: as §2

[7] = test system: horseweed (Erigeron canadensis); assay: Test C postemergence, horseweed; settings: for Horseweed plant response rating: visual injury, 0 to 100 scale (0 no effect, 100 complete control)
Outline: as §2

[8] = test system: wheat (Triticum aestivum); assay: Test C preemergence, wheat; settings: 0 is no effect, 100 is complete control
[9] = test system: ragweed (common ragweed, Ambrosia artemisiifolia); assay: Test C preemergence, ragweed; settings: 0 is no effect, 100 is complete control
Outline: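 Visual injury rating, 0 (no effect) to 100 (complete control), versus untreated controls after 10 or 12 days in the greenhouse. Compounds were formulated in non-phytotoxic solvent plus surfactant and applied either as a directed soil spray at sowing or onto emerged one- to two-leaf plants.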

[10] = 125 g ai/ha Postemergence, 0 is no effect, 100 is complete control

SMILES | Plant response rating, Rice [1] | Blackgrass plant response rating ([2]; 31 g ai/ha Postemergence) | Oat, Wild plant response rating ([3]; 31 g ai/ha Postemergence) | Plant response rating (0 to 100 scale), Oat, Wild [3, 10] | Plant response rating, Ducksalad [4] | Plant response rating (0 to 100 scale), Pigweed, Palmer ([5]; 31 g ai/ha Preemergence) | Plant response rating (0 to 100 scale), Pigweed, Palmer ([5]; 125 g ai/ha Preemergence) | Wheat plant response rating ([6]; 31 g ai/ha Postemergence) | Wheat plant response rating ([6]; 125 g ai/ha Postemergence) | Horseweed plant response rating ([7]; 31 g ai/ha Postemergence) | Plant response rating (0 to 100 scale), Horseweed [7, 10] | Plant response rating (0 to 100 scale), Wheat ([8]; 31 g ai/ha Preemergence) | Plant response rating (0 to 100 scale), Wheat ([8]; 125 g ai/ha Preemergence) | Plant response rating (0 to 100 scale), Ragweed ([9]; 31 g ai/ha Preemergence) | Plant response rating (0 to 100 scale), Ragweed ([9]; 125 g ai/ha Preemergence) | Blackgrass plant response rating ([2]; 125 g ai/ha Postemergence) | Oat, Wild plant response rating ([3]; 125 g ai/ha Postemergence) | Horseweed plant response rating ([7]; 125 g ai/ha Postemergence)
COC(=O)N(c1cc(N2CCC(OC3CC3)C2=O)c(C)cc1Cl)S(=O)(=O)C(F)(F)F (stereo not shown) [Compound 40] | 0 | 10 | 50 | 80 | 70 | 80 | 100 | 60 | 70 | 80 | 80 | 60 | 100 | 70 | 90 |  |  | 
Cc1cc(C)c(N2CCC(OCC3CC3(F)F)C2=O)cc1NS(=O)(=O)C(F)(F)F (stereo not shown) [Compound 41] | 10 | 40 | 30 |  | 60 | 100 | 100 | 60 | 60 | 70 |  | 90 | 100 | 70 | 90 | 60 | 30 | 100
Cc1cc(C)c(N2CCC(OCC3CCCO3)C2=O)cc1NS(=O)(=O)C(F)(F)F (stereo not shown) [Compound 42] | 15 | 0 | 0 |  | 95 | 80 | 100 | 0 | 80 | 20 |  | 30 | 90 | 10 | 60 | 50 | 40 | 80
Cc1cc(C)c(N2CCC(OCC3CCC3)C2=O)cc1NS(=O)(=O)C(F)(F)F (stereo not shown) [Compound 43] | 30 | 0 | 10 |  | 95 | 70 | 100 | 30 | 70 | 30 |  | 20 | 100 | 10 | 60 | 50 | 20 | 60
Cc1c(NS(=O)(=O)C(F)(F)F)cc(N2CCC(OC3CCC3)C2=O)c(C)c1C (stereo not shown) [Compound 45] | 55 | 10 | 10 |  | 85 | 100 | 100 | 20 | 60 | 30 |  | 60 | 100 | 80 | 100 | 40 | 30 | 90
Cc1c(NS(=O)(=O)C(F)(F)F)cc(N2CCC(OC3CC3)C2=O)c(C)c1C (stereo not shown) [Compound 47] | 30 | 40 | 10 |  | 95 | 100 | 100 | 80 | 80 |  |  | 90 | 100 | 70 | 100 | 70 | 60 | 100
Cc1c(N2CCC(OC3CCC3)C2=O)cc(N(C(=O)OCC(C)C)S(=O)(=O)C(F)(F)F)c(C)c1C (stereo not shown) [Compound 48] | 25 | 10 | 10 |  | 95 | 100 | 100 | 30 | 70 | 70 |  | 30 | 80 | 20 | 90 | 30 | 20 | 90
Cc1c(N2CCC(OC3CC3)C2=O)cc(N(COC(=O)C(C)(C)C)S(=O)(=O)C(F)(F)F)c(C)c1C (stereo not shown) [Compound 49] | 40 | 30 | 30 |  | 95 | 30 | 100 | 70 | 70 |  |  | 30 | 90 | 100 | 100 | 60 | 70 | 100
Cc1cc(C)c(N2CCC(OCC3CCC3(F)F)C2=O)cc1NS(=O)(=O)C(F)(F)F (stereo not shown) [Compound 52] | 0 | 20 | 10 |  | 90 | 70 | 100 | 20 | 70 | 80 |  | 90 | 100 | 0 | 30 | 40 | 60 | 90
Cc1cc(C)c(N(COC(=O)C(C)(C)C)S(=O)(=O)C(F)(F)F)cc1N1CCC(OCC2CC2(F)F)C1=O (stereo not shown) [Compound 54] | 0 | 30 | 10 |  | 90 | 0 | 50 | 30 | 70 | 70 |  | 0 | 80 | 0 | 60 | 90 | 80 | 90
